The source of these data is US9126986B2, “Hetero-bicyclic derivatives as HCV inhibitors” (Janssen R&D Ireland, priority 2011, dated 2015).

Read-outs that look alike come from different tables or passages of the source.

As a reminder, the CC50 is the concentration that lowers cell viability or growth by half. Lower therefore signals harm at low concentration.

Data set [1] can be described thus: Counterscreen MT4-LTR-Luc. The class given is cell-based. The following applies: human; MT4 T-cell line with long terminal repeat-Luc reporter. An excerpt: (§1) Counterscreen cell lines included a Huh-7 hepatoma cell line containing a human cytomegalovirus major immediate-early promoter-Luc construct (Huh7-CMV-Luc) and an MT4 T-cell line containing a long terminal repeat-Luc reporter (MT4-LTR-Luc).
On the technique in general: The purpose of a counterscreen is to sort out artefacts and off-target activity.

The test system of data set [2] is HCV subgenomic replicon genotype 1b Con1 in Huh-7 lunet cells. The experiment in a line: HCV replicon assay, transient transfection, genotype 1b Con1. The class given is cell-based, HCV genotype 1b Con1. The note with it: transiently transfected Huh-7 lunet, genotype 1b Con1, two days incubation, luciferase. From the text: (§2) In a transient set-up, a Huh-7 lunet hepatoma cell line was transiently transfected with an autonomously replicating RNA encoding a bi-cistronic expression construct. This construct comprises a firefly luciferase reporter gene preceding the NS3-NS5B subgenomic region of HCV (genotype 1a H77 or 1b Con1). Translation of the HCV subgenomic region is mediated by an internal ribosome entry site of encephalomyocarditis virus. The construct is furthermore flanked by 5′ and 3′ untranslated regions of HCV (genotype 1a H77 or 1b Con 1, respectively), which allow for replication of the RNA.
(§3) Cells were plated in 384 well plates in the presence of test and control compounds, which were added in various concentrations. Following an incubation of two days, replication of the HCV subgenomic replicon RNA was measured by assaying luciferase activity (using standard luciferase assay substrates and reagents and a Perkin Elmer ViewLux™ ultraHTS microplate imager). HCV subgenomic replicon containing cells in the control cultures have high luciferase expression in the absence of any inhibitor. The inhibitory activity of the compound was monitored, enabling a dose-response curve for each test compound. EC50 values were then calculated, which represent the amount of compound required to decrease the level of detected luciferase activity by 50%, or more specifically, to reduce the ability of the genetically linked HCV subgenomic RNA to replicate.
A general note: A replicon is a self-replicating genome or part of one, used to study replication in cells.

Data set [3] concerns HCV replicon type 1b in Huh-Luc cells. Description: HCV replicon assay, stable transfection (Huh-7 luc/neo, luciferase readout). Format: cell-based, HCV type 1b. The following applies: stably transfected Huh-Luc cells, genotype 1b, three days incubation, average where tested more than once, read-out: HCV-REP-HUH7LUC_EC50. From the text: The compounds of formula (I) were examined for inhibitory activity in the HCV replicon. This cellular assay is based on a bicistronic expression construct, as described by Lohmann et al. (Science (1999) 285: 110-113; Journal of Virology (2003) 77: 3007-3019) with modifications described by Krieger et al. (Journal of Virology (2001) 75: 4614-4624), and Lohmann et al. (Journal of Virology (2003) 77: 3007-3019) for genotype 1b and by Yi et al. (Journal of Virology (2004) 78: 7904-7915) for genotype 1a, in a multi-target screening strategy.
The method was as follows. The assay utilized the stably transfected cell line Huh-7 luc/neo (hereafter referred to as Huh-Luc). This cell line harbors an RNA encoding a bicistronic expression construct comprising the wild type NS3-NS5B regions of HCV type 1b translated from an Internal Ribosome Entry Site (IRES) from encephalomyocarditis virus (EMCV), preceded by a reporter portion (FfL-luciferase), and a selectable marker portion (neoR, neomycine phosphotransferase). The construct is flanked by 5′ and 3′ NTRs (non-translated regions) from HCV type 1b. Continued culture of the replicon cells in the presence of G418 (neoR) is dependent on the replication of the HCV RNA. The stably transfected replicon cells that replicate HCV RNA autonomously and to high levels, encoding inter alia luciferase, were used for screening the antiviral compounds.
The replicon cells were plated in 384 well plates in the presence of the test and control compounds which were added in various concentrations. Following an incubation of three days, HCV replication was measured by assaying luciferase activity (using standard luciferase assay substrates and reagents and a Perkin Elmer ViewLux™ ultraHTS microplate imager). Replicon cells in the control cultures have high luciferase expression in the absence of any inhibitor. The inhibitory activity of the compound was monitored on the Huh-Luc cells, enabling a dose-response curve for each test compound. EC50 values were then calculated, which represent the amount of compound required to decrease the level of detected luciferase activity by 50%, or more specifically, to reduce the ability of the genetically linked HCV replicon RNA to replicate.
Where a compound of formula (I) was tested more than once in the replicon assay, the average of all test results is given in this Table 1.

Data set [4] has as its system HCV subgenomic replicon genotype 1a H77 in Huh-7 lunet cells. The experiment in a line: HCV replicon assay, transient transfection, genotype 1a H77. The class given is cell-based, HCV genotype 1a H77. The note with it: transiently transfected Huh-7 lunet, genotype 1a H77, two days incubation, luciferase.
Description: as §2, §3

A short description of data set [5]: Counterscreen Huh7-CMV-Luc. Format: cell-based. The following applies: Huh-7 hepatoma cell line with human CMV major immediate-early promoter-Luc construct.
Description: as §1

Data set [6] concerns MT4-LTR-Luc cells. The experiment in a line: Counterscreen MT4-LTR-Luc. The class given is cell-based. The following applies: MT4 T-cell line with long terminal repeat-Luc reporter.
Description: as §1

Consider `COC(=O)N[C@H](C(=O)N1CCCC1c1cc(=O)c2ccc(-c3ccc(-c4ccc(-c5cnc([C@@H]6CCCN6C(=O)[C@@H](NC(=O)OC)C(C)C)[nH]5)cc4)cc3)cc2[nH]1)C(C)C` (single isomer, unassigned) [Compound 3a], for which the CC50 in data set [1] and in data set [5] was greater than 984 nM in each case. In addition, the EC50 in data set [2] stood at 0.025 nM; in data set [3], 0.021 nM; in data set [4], 0.008 nM.
In data set [6], `COC(=O)N[C@H](C(=O)N1CCCC1c1cc(=O)c2ccc(-c3ccc(-c4ccc(-c5cnc([C@@H]6CCCN6C(=O)[C@@H](NC(=O)OC)C(C)C)[nH]5)cc4)cc3)cc2[nH]1)C(C)C` (single isomer, unassigned) [Compound 3b] had a CC50 greater than 984 nM. Also, the EC50 in data set [2] was found to be 1.36 nM; in data set [3], 1.13 nM; in data set [4], 0.941 nM.
As for `COC(=O)N[C@H](C(=O)N1CCCC1c1cc(=O)c2ccc(-c3ccc4c(c3)C(F)(F)c3cc(-c5c[nH]c([C@@H]6CCCN6C(=O)[C@@H](NC(=O)OC)C(C)C)n5)ccc3-4)cc2[nH]1)C(C)C` (single isomer, unassigned) [Compound 5a], the half-maximal cytotoxic concentration (CC50) in data set [1] and in data set [5] was greater than 984 nM in each case. Besides, the EC50 in data set [2] was determined as 0.013 nM; in data set [3], 0.014 nM; in data set [4], 0.007 nM.
Take `COC(=O)N[C@H](C(=O)N1CCCC1c1cc(=O)c2ccc(-c3ccc4c(c3)C(F)(F)c3cc(-c5c[nH]c([C@@H]6CCCN6C(=O)[C@@H](NC(=O)OC)C(C)C)n5)ccc3-4)cc2[nH]1)C(C)C` (single isomer, unassigned) [Compound 5b]: the CC50 in data set [6] is greater than 984 nM. The EC50 came to 0.63 nM in data set [2], 0.228 nM in data set [3] and 0.21 nM in data set [4].
In the case of `COC(=O)N[C@H](C(=O)N1CCCC1c1[nH]c2cc(-c3ccc(-c4ccc(-c5cnc([C@@H]6CCCN6C(=O)[C@@H](NC(=O)OC)C(C)C)[nH]5)cc4)cc3)ccc2c(=O)c1F)C(C)C` (single isomer, unassigned) [Compound 18a], the CC50 in data set [1] and in data set [5] was greater than 984 nM each time. The EC50 in data set [2] came to 0.037 nM; in data set [3], 0.03 nM; in data set [4], 0.011 nM.
As for `COC(=O)N[C@H](C(=O)N1CCC[C@H]1c1ncc(-c2ccc3c(c2)C(F)(F)c2cc(-c4ccc5c(=O)cc([C@@H]6C[C@@H]7CCCC[C@@H]7N6C(=O)[C@@H](NC(=O)OC)C(C)C)[nH]c5c4)ccc2-3)[nH]1)C(C)C` [Compound 6], the CC50 in data set [1] and in data set [5] was greater than 984 nM in each case. Also, the EC50 in data set [2] (Hepatitis C virus, Huh-7, 48 h) turned out to be 0.013 nM; in data set [3] (Hepatitis C virus, Huh-7, 72 h), 0.012 nM; in data set [4] (Hepatitis C virus, Huh-7, 48 h) it was 0.005 nM.
Regarding `COC(=O)N[C@H](C(=O)N1CCC[C@H]1c1cc(=O)c2cc(F)c(-c3ccc(-c4ccc(-c5cnc([C@@H]6CCCN6C(=O)[C@@H](NC(=O)OC)C(C)C)[nH]5)cc4)cc3)cc2[nH]1)C(C)C` [Compound 7], the CC50 in data set [1] and in data set [5] was greater than 984 nM each time. Also, the EC50 was found to be 0.021 nM in data set [2] (Hepatitis C virus, Huh-7, 48 h); 0.008 nM in data set [3] (Hepatitis C virus, Huh-7, 72 h); 0.042 nM in data set [4] (Hepatitis C virus, Huh-7, 48 h).
For `COC(=O)N[C@H](C(=O)N1CCC[C@H]1c1ncc(-c2ccc3c(c2)C(F)(F)c2cc(-c4ccc5c(=O)cc([C@@H]6[C@H]7CC[C@H](C7)N6C(=O)[C@@H](NC(=O)OC)C(C)C)[nH]c5c4)ccc2-3)[nH]1)C(C)C` [Compound 8], the CC50 was 770 nM in data set [1] and greater than 984 nM in data set [5]. Also, the EC50 in data set [2] (Hepatitis C virus, Huh-7, 48 h) was 0.005 nM; in data set [3] (Hepatitis C virus, Huh-7, 72 h) it was 0.004 nM; in data set [4] (Hepatitis C virus, Huh-7, 48 h), 0.003 nM.
Regarding `COC(=O)N[C@H](C(=O)N1CCC[C@H]1c1nc(-c2ccc(-c3ccc(-c4ccc5c(=O)nc([C@@H]6CCCN6C(=O)[C@@H](NC(=O)OC)C(C)C)[nH]c5c4)cc3)cc2)c[nH]1)C(C)C` [Compound 11], the CC50 in data set [1] and in data set [5] was greater than 984 nM in each case. The EC50 in data set [2] (Hepatitis C virus, Huh-7, 48 h) was determined as 0.025 nM; in data set [3] (Hepatitis C virus, Huh-7, 72 h), 0.149 nM; in data set [4] (Hepatitis C virus, Huh-7, 48 h), 1.47 nM.
In the case of `COC(=O)N[C@H](C(=O)N1CCC[C@H]1c1ncc(-c2ccc3c(c2)C(F)(F)c2cc(-c4ccc5c(=O)[nH]c([C@@H]6CCCN6C(=O)[C@@H](NC(=O)OC)C(C)C)nc5c4)ccc2-3)[nH]1)C(C)C` [Compound 12], the EC50 in data set [2] (Hepatitis C virus, Huh-7, 48 h) was determined as 0.005 nM; in data set [3] (Hepatitis C virus, Huh-7, 72 h), 0.007 nM; in data set [4] (Hepatitis C virus, Huh-7, 48 h), 0.047 nM. The compound also displayed a CC50 in data set [5] greater than 984 nM.
With `COC(=O)N[C@H](C(=O)N1CCC[C@H]1C1=NS(=O)(=O)c2ccc(-c3ccc4c(c3)C(F)(F)c3cc(-c5cnc([C@@H]6CCCN6C(=O)[C@@H](NC(=O)OC)C(C)C)[nH]5)ccc3-4)cc2N1)C(C)C` [Compound 14], the CC50 in data set [1] and in data set [5] was greater than 984 nM each time. Moreover, the EC50 in data set [2] (Hepatitis C virus, Huh-7, 48 h) was determined as 0.017 nM; in data set [3] (Hepatitis C virus, Huh-7, 72 h), 0.008 nM; in data set [4] (Hepatitis C virus, Huh-7, 48 h), 0.005 nM.
`COC(=O)N[C@H](C(=O)N1CCC[C@H]1C1=NC2(COC2)c2ccc(-c3ccc4c(c3)C(F)(F)c3cc(-c5cnc([C@@H]6CCCN6C(=O)[C@@H](NC(=O)OC)C(C)C)[nH]5)ccc3-4)cc2N1)C(C)C` [Compound 16]: the CC50 in data set [1] and in data set [5] was greater than 984 nM in each case. The EC50 in data set [2] (Hepatitis C virus, Huh-7, 48 h) turned out to be 0.033 nM; in data set [3] (Hepatitis C virus, Huh-7, 72 h) it was 0.011 nM; in data set [4] (Hepatitis C virus, Huh-7, 48 h), 0.04 nM.
Consider `COC(=O)N[C@H](C(=O)N1CCC[C@H]1C1=NC2(COC2)c2ccc(-c3ccc(-c4ccc(-c5cnc([C@@H]6CCCN6C(=O)[C@@H](NC(=O)OC)C(C)C)[nH]5)cc4)cc3)cc2N1)C(C)C` [Compound 20], for which the 50% cytotoxic concentration (CC50) in data set [1] and in data set [5] was greater than 984 nM throughout. Further, the EC50 in data set [2] (Hepatitis C virus, Huh-7, 48 h) was less than 0.019 nM; in data set [3] (Hepatitis C virus, Huh-7, 72 h), 0.023 nM; in data set [4] (Hepatitis C virus, Huh-7, 48 h), 0.46 nM.
In the case of `COC(=O)N[C@H](C(=O)N1CCC[C@H]1C1=NS(=O)(=O)c2ccc(-c3ccc(-c4ccc(-c5c[nH]c([C@@H]6CCCN6C(=O)[C@@H](NC(=O)OC)C(C)C)n5)cc4)cc3)cc2N1)C(C)C` [Compound 22], the CC50 in data set [1] and in data set [5] was greater than 984 nM each time. For the same compound, the EC50 in data set [2] (Hepatitis C virus, Huh-7, 48 h) was 0.012 nM; in data set [3] (Hepatitis C virus, Huh-7, 72 h), 0.012 nM; in data set [4] (Hepatitis C virus, Huh-7, 48 h), 0.054 nM.
Regarding `COC(=O)N[C@H](C(=O)N1CC2(C[C@H]1c1ncc(-c3ccc4c(c3)C(F)(F)c3cc(-c5ccc6c(=O)[nH]c([C@@H]7C[C@@H]8CCCC[C@@H]8N7C(=O)[C@@H](NC(=O)OC)C(C)C)nc6c5)ccc3-4)[nH]1)OCCO2)C(C)C` [Compound 23], the CC50 in data set [1] and in data set [5] was greater than 984 nM each time. Moreover, the EC50 came out at 0.005 nM in data set [2] (Hepatitis C virus, Huh-7, 48 h); 0.006 nM in data set [3] (Hepatitis C virus, Huh-7, 72 h); 0.005 nM in data set [4] (Hepatitis C virus, Huh-7, 48 h).
